Source: patent US20090197878A1, “SUBSTITUTED BENZO[d][1,3]OXAZIN-2(4H)-ONES AND RELATED DERIVATIVES AND THEIR USES FOR MODULATING THE PROGESTERONE RECEPTOR” (Wyeth, priority 2008, published 2009)

Legend:
[1] = molecular target: T1, progesterone receptor (PR) (Homo sapiens, UniProt P06401); assay: Progesterone receptor whole cell competition binding assay using T47D cells; settings: intact T47D cells, 3 nM 3H-progesterone, 3 hours at 37° C.
T1 construct: in live, intact (whole) cells, using the human breast carcinoma T47D cell line; endogenous in cells; host or cells: T47D human breast carcinoma cells
T1 sequence (P06401 1-933): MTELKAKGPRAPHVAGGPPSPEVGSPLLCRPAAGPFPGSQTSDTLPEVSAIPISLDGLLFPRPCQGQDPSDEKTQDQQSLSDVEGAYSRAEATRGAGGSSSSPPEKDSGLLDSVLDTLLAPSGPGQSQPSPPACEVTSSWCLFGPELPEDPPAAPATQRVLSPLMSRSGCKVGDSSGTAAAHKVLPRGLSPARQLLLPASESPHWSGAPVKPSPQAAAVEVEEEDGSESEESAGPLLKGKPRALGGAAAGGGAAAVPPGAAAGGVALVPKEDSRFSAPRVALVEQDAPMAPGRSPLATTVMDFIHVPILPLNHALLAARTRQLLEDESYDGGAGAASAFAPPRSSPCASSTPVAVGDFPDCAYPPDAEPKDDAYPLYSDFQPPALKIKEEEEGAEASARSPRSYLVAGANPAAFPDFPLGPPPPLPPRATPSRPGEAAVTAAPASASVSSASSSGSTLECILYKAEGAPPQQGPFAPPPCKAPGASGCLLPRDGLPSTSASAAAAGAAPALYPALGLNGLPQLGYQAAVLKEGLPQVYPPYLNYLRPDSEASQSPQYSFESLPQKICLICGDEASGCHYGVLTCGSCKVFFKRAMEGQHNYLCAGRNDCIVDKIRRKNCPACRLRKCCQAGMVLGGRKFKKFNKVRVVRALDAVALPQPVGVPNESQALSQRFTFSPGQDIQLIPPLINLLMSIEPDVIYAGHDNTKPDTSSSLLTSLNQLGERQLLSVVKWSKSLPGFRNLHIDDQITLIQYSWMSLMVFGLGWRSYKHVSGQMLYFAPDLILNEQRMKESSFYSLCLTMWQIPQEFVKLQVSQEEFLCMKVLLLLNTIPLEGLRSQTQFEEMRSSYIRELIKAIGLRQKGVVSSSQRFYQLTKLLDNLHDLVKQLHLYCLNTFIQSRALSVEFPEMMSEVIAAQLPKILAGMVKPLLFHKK
Protocol: The purpose of this example is to evaluate the progesterone receptor (PR) binding activity of progestins or antiprogestins in live, intact (whole) cells, using the human breast carcinoma T47D cell line and ^3H-progesterone as the labeled ligand.
A. Reagents: • Culture medium: • (i) 5% RC which is phenol red free Dulbecco's Modified Eagles Medium (DMEM):F12 (1:1) (GIBCO, BRL) supplemented with 5% (v/v) charcoal stripped fetal bovine serum (not heat-inactivated), 100 U/mL penicillin, 100 μg/mL streptomycin, and 2 mM of the GlutaMax™ reagent (GIBCO, BRL) • (ii) 10% RC is 5% RC supplemented with 10% (v/v) FBS • ^3H-Progesterone: Perkin Elmer Life Science, cat# NET-381 (typically around 102 Ci/mmol) • Liquid Scintillation Cocktail: Beckman Coulter, the Ready-Safe™ reagent; cat# 141349 • Tissue Culture Plates: 96 well, clear bottom, white, plates (VWR Part # 29443-150 or Perkin Elmer Part # 3983498)
B. T47D Cell Culture: • T47D cells are maintained in 10% RC media at 37° C. in a 5% CO2/humidified atmosphere and need to be split twice weekly for proper response. Cells are plated in 10% RC the day before binding assay at 50,000 cells per well in the white, clear bottom plates purchased through VWR or Perkin Elmer.
Cells plated the day prior to the assay in white clear bottom plates are used. A master compound plate is set up containing control and test compounds at 20X final desired concentration for the competition binding. A typical dose range of 20X concentrations are (in nM); 200,000; 20,000; 6000; 2000; 600; 200; 20; and 2. Final concentrations are then (in nM); 10,000; 1000; 300; 100; 30; 10; 1; 0.1. Control compounds are typically run 10-fold lower than this and include a 0, or vehicle, control well. A stock of 60 nM ^3H-progesterone (20X) is also prepared at a volume needed of 10 μL per well.
Media on cells are replaced with 180 μL of 5% RC. Ten microliters (10 μL) of 60 nM ^3H-progesterone (for final concentration of 3 nM) is added immediately followed by 10 μL of 20X test or control compounds. Compounds are incubated for 3 hours at 37° C. A time course study found no difference between 2 and 4 hours incubation.
Following incubation, media is carefully removed and cells are washed 3X with 200 μL 5% RC each wash. Fifty microliters of liquid scintillation cocktail is added and the plates are shaken vigorously for a minimum of 15 minutes. Plates are read on the Wallac Microbeta® 1450 plate reader.
D. Analysis of Results: • Square root-transformed data are used for analysis of variance and calculation of IC50. SAS software (SAS Institute, Inc.) is used for all the statistical analysis.
E. Reference Compounds: • Progesterone is used as a reference progestin and RU486 as a reference antiprogestin.

[2] = tested on: alkaline phosphatase activity in T47D cells; assay: Effects of progestins and antiprogestins on alkaline phosphatase activity in T47D cells; assay type: cell-based; settings: Homo sapiens; for IC50: antagonist mode in the presence of 1 nM progesterone, 24 hours
Protocol: The purpose of this example is to identify progestins or antiprogestins by determining a compound's effect on alkaline phosphatase activity in T47D cells.
A. Reagents: • Culture medium: Dulbecco's Modified Eagle Medium (DMEM):F12 (1:1) (GIBCO, BRL) supplemented with 5% (v/v) charcoal stripped fetal bovine serum (not heat-inactivated), 100 U/mL penicillin, 100 μg/mL streptomycin, and 2 mM of the GlutaMax® reagent (GIBCO, BRL). • Alkaline phosphatase assay buffer: • I. 0.1M Tris-HCl, pH 9.8, containing 0.2% Triton® X-100 reagent • II. 0.1M Tris-HCl, pH 9.8, containing 4 mM p-nitrophenyl phosphate (Sigma).
Frozen T47D cells are thawed in a 37° C. water bath and diluted to 280,000 cells/mL in culture medium. To each well in a 96-well plate (Falcon, Becton Dickinson Labware), was added 180 μL of diluted cell suspension. Twenty μL of reference or test compounds diluted in the culture medium is then added to each well. When testing for progestin antagonist activity, reference antiprogestins or test compounds are added in the presence of 1 nM progesterone. The cells are incubated at 37° C. in a 5% CO2/humidified atmosphere for 24 hours. For high throughput screening, one concentration of each compound will be tested at 0.3 μg/mL. Based on an average molecular weight of 300 g/mol for the compounds in the library, the concentration is approximately 1 μM. Compounds active in this assay can be tested in dose response assays to determine EC50 and IC50.
C. Alkaline Phosphatase Enzyme Assay: • At the end of treatment, the medium is removed from the plate. Fifty μL of assay buffer I is added to each well. The plates are shaken in a titer plate shaker for 15 minutes. Then 150 μL of assay buffer II is added to each well. Optical density measurements are taken at 5 minute intervals for 30 minutes at a test wavelength of 405 nm.
D. Analysis of Results: Analysis of Dose-Response Data • For reference and test compounds, a dose response curve is generated for dose (X-axis) vs. the rate of enzyme reaction (slope) (Y-axis). Square root-transformed data are used for analysis of variance and nonlinear dose response curve fitting for both agonist and antagonist modes. Huber weighting is used to down-weight the effects of outliers. EC50 or IC50 values are calculated from the retransformed values. JMP® software (SAS Institute, Inc.) is used for both one-way analysis of variance and non-linear dose response analysis in both single dose and dose response studies.
E. Reference Compounds • Progesterone and trimegestone are reference progestins and RU486 is the reference antiprogestin. All reference compounds are run in full dose response curves and the EC50 and IC50 values are calculated.

| IC50 [1] [nM] | IC50 [2] [nM] | melting point [°C] | Structure (SMILES) | inhibition at 3 µM ([2]; at 3000 nM, in the presence of 1 nM progesterone) [%] | inhibition at 0.03 µM ([2]; at 30 nM, in the presence of 1 nM progesterone) [%] | inhibition at 0.3 µM ([2]; at 300 nM, in the presence of 1 nM progesterone) [%] |
| --- | --- | --- | --- | --- | --- | --- |
| 84.8 | 61.8 | 131 to 132 | COC(=O)/C=C(\C)c1ccc2c(c1)C(C)(C)OC(=O)N2 [Example 9, Methyl(2E)-3-(4,4-dimethyl-2-oxo-1,4-dihydro-2H-3,1-benzoxazin-6-yl)but-2-enoate] | – | – | – |
| 1390 | – | 213 to 215 | C/C(=C/C#N)c1ccc2c(c1)C(C)(C)OC(=O)N2 [Example 12, (2Z)-3-(4,4-Dimethyl-2-oxo-1,4-dihydro-2H-3,1-benzoxazin-6-yl)but-2-enenitrile] | 25 | – | – |
| 48.1 | 38.2 | 230 to 232 | C/C(=C\C#N)c1ccc2c(c1)C(C)(C)OC(=O)N2 [Example 13, (2E)-3-(4,4-Dimethyl-2-oxo-1,4-dihydro-2H-3,1-benzoxazin-6-yl)but-2-enenitrile] | – | – | – |
| 89.8 | – | – | CC/C(=C\C#N)c1ccc2c(c1)C(C)(C)OC(=O)N2 [Example 28, (2E)-3-(4,4-Dimethyl-2-oxo-1,4-dihydro-2H-3,1-benzoxazin-6-yl)pent-2-enenitrile] | – | 70 | – |
| 777 | 84.6 | – | CC(C)/C(=C\C#N)c1ccc2c(c1)C(C)(C)OC(=O)N2 [Example 30, (2E)-3-(4,4-Dimethyl-2-oxo-1,4-dihydro-2H-3,1-benzoxazin-6-yl)-4-methylpent-2-enenitrile] | – | – | – |

The next lines start with the molecule.

| Structure (SMILES) | IC50 [1] [nM] | IC50 [2] [nM] | melting point [°C] | inhibition at 3 µM ([2]; at 3000 nM, in the presence of 1 nM progesterone) [%] | inhibition at 0.03 µM ([2]; at 30 nM, in the presence of 1 nM progesterone) [%] | inhibition at 0.3 µM ([2]; at 300 nM, in the presence of 1 nM progesterone) [%] |
| --- | --- | --- | --- | --- | --- | --- |
| CC1(C)OC(=O)Nc2ccc(/C(=C/C#N)c3ccccc3)cc21 [Example 6, (2E)-3-(4,4-Dimethyl-2-oxo-1,4-dihydro-2H-3,1-benzoxazin-6-yl)-3-phenylacrylonitrile] | 82.5 | 80.3 | 205 to 206 | – | – | – |
| CCC/C(=C\C#N)c1ccc2c(c1)C1(CCCCC1)OC(=O)N2 [Example 20, (2E)-3-(2-Oxo-1,2-dihydrospiro[3,1-benzoxazine-4,1′-cyclohexan]-6-yl)hex-2-enenitrile] | 46.5 | 55.7 | – | – | – | – |
| CCC1(CC)OC(=O)Nc2ccc(/C(C)=C/C#N)cc21 [Example 22, (2E)-3-(4,4-Diethyl-2-oxo-1,4-dihydro-2H-3,1-benzoxazin-6-yl)but-2-enenitrile] | 150 | 49.6 | 159 to 160 | – | – | – |
| CC/C(=C\C#N)c1ccc2c(c1)C(CC)(CC)OC(=O)N2 [Example 23, (2E)-3-(4,4-Diethyl-2-oxo-1,4-dihydro-2H-3,1-benzoxazin-6-yl)pent-2-enenitrile] | 52.8 | 29.2 | 135 to 136 | – | – | – |
| CCC/C(=C\C#N)c1ccc2c(c1)C(CC)(CC)OC(=O)N2 [Example 25, (2E)-3-(4,4-Diethyl-2-oxo-1,4-dihydro-2H-3,1-benzoxazin-6-yl)hex-2-enenitrile] | 49.2 | 16.1 | 121 to 124 | – | – | – |
| CCC1(CC)OC(=O)Nc2ccc(/C(=C/C#N)C(C)C)cc21 [Example 27, (2E)-3-(4,4-Diethyl-2-oxo-1,4-dihydro-2H-3,1-benzoxazin-6-yl)-4-methylpent-2-enenitrile] | 1420 | 208 | 138 to 140 | – | – | – |
| CCC/C(=C\C#N)c1ccc2c(c1)C(C)(C)OC(=O)N2 [Example 29, (2E)-3-(4,4-Dimethyl-2-oxo-1,4-dihydro-2H-3,1-benzoxazin-6-yl)hex-2-enenitrile] | 104 | – | – | – | – | 84 |
